According to PubChem BioAssay (NCI):
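Where inhibition never reached the appropriate level, the endpoint shown equals the highest concentration tested. Otherwise, values were interpolated linearly from a five-concentration, 48-hour dose response in 96-well plates. Here, GI50 denotes the concentration required for 50% inhibition of growth. At the TGI there is no net growth.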

Experiments:
Assay in all cases: NCI anticancer screen, dose series, 48 h
EKVX NSCLC = test system: EKVX NSCLC
MCF7 breast = test system: MCF7 breast
SF-539 CNS = test system: SF-539 CNS
SNB-75 CNS = test system: SNB-75 CNS
MDA-MB-435 = test system: MDA-MB-435
A498 renal = test system: A498 renal
M14 melanoma = test system: M14 melanoma
HCC-2998 colon = test system: HCC-2998 colon
RXF 393 renal = test system: RXF 393 renal
MALME-3M melanoma = test system: MALME-3M melanoma
HS 578T breast = test system: HS 578T breast
HCT-116 colon = test system: HCT-116 colon
ACHN renal = test system: ACHN renal
MDA-MB-231 breast = test system: MDA-MB-231 breast
OVCAR-8 ovarian = test system: OVCAR-8 ovarian
HOP-62 NSCLC = test system: HOP-62 NSCLC
A549 NSCLC = test system: A549 NSCLC
T-47D breast = test system: T-47D breast
U251 CNS = test system: U251 CNS
HCT-15 colon = test system: HCT-15 colon
NCI-H522 lung = test system: NCI-H522 lung
RPMI-8226 leukemia = test system: RPMI-8226 leukemia
NCI/ADR-RES ovarian = test system: NCI/ADR-RES ovarian
SR leukemia = test system: SR leukemia
K-562 leukemia = test system: K-562 leukemia
DU-145 prostate = test system: DU-145 prostate
SK-MEL-5 melanoma = test system: SK-MEL-5 melanoma
UACC-257 melanoma = test system: UACC-257 melanoma
UACC-62 melanoma = test system: UACC-62 melanoma
BT-549 breast = test system: BT-549 breast
HOP-92 NSCLC = test system: HOP-92 NSCLC
SK-OV-3 ovarian = test system: SK-OV-3 ovarian
SNB-19 CNS = test system: SNB-19 CNS
HT29 colon = test system: HT29 colon
LOX IMVI melanoma = test system: LOX IMVI melanoma
CAKI-1 renal = test system: CAKI-1 renal
SK-MEL-2 melanoma = test system: SK-MEL-2 melanoma
IGROV1 ovarian = test system: IGROV1 ovarian
SW-620 colon = test system: SW-620 colon
SK-MEL-28 melanoma = test system: SK-MEL-28 melanoma
NCI-H460 lung = test system: NCI-H460 lung
HL-60(TB) leukemia = test system: HL-60(TB) leukemia
NCI-H23 lung = test system: NCI-H23 lung
COLO 205 colon = test system: COLO 205 colon
SF-268 CNS = test system: SF-268 CNS
SN12C renal = test system: SN12C renal
OVCAR-4 ovarian = test system: OVCAR-4 ovarian
UO-31 renal = test system: UO-31 renal
786-0 renal = test system: 786-0 renal
CCRF-CEM leukemia = test system: CCRF-CEM leukemia
TK-10 renal = test system: TK-10 renal
OVCAR-3 ovarian = test system: OVCAR-3 ovarian
MOLT-4 leukemia = test system: MOLT-4 leukemia
NCI-H226 lung = test system: NCI-H226 lung
KM12 colon = test system: KM12 colon
PC-3 prostate = test system: PC-3 prostate
OVCAR-5 ovarian = test system: OVCAR-5 ovarian
SF-295 CNS = test system: SF-295 CNS

CCN(Cc1ccc(Cl)cc1)c1ccc(CO)c(Cl)c1
GI50 (EKVX NSCLC): 12.4 µM | TGI (EKVX NSCLC): 29.1 µM | GI50 (MCF7 breast): 0.292 µM | TGI (MCF7 breast): 6.43 µM | GI50 (SF-539 CNS): 11.9 µM | TGI (SF-539 CNS): 26.7 µM | GI50 (SNB-75 CNS): 3.4 µM | TGI (SNB-75 CNS): 17.6 µM | GI50 (MDA-MB-435): 11 µM | TGI (MDA-MB-435): 24.5 µM | GI50 (A498 renal): 0.0311 µM | TGI (A498 renal): 0.153 µM | GI50 (M14 melanoma): 4.43 µM | TGI (M14 melanoma): 20.2 µM | GI50 (HCC-2998 colon): 7.7 µM | TGI (HCC-2998 colon): 21.9 µM | GI50 (RXF 393 renal): 2.07 µM | TGI (RXF 393 renal): 13.3 µM | GI50 (MALME-3M melanoma): 12.8 µM | TGI (MALME-3M melanoma): 28.5 µM | GI50 (HS 578T breast): 6.09 µM | TGI (HS 578T breast): 31.5 µM | GI50 (HCT-116 colon): 0.129 µM | TGI (HCT-116 colon): 3.77 µM | GI50 (ACHN renal): 4.64 µM | TGI (ACHN renal): 19.6 µM | GI50 (MDA-MB-231 breast): 4.95 µM | TGI (MDA-MB-231 breast): 20.3 µM | GI50 (OVCAR-8 ovarian): 3.62 µM | TGI (OVCAR-8 ovarian): 21 µM | GI50 (HOP-62 NSCLC): 1.24 µM | TGI (HOP-62 NSCLC): 13.9 µM | GI50 (A549 NSCLC): 1.35 µM | TGI (A549 NSCLC): 14.3 µM | GI50 (T-47D breast): 0.196 µM | TGI (T-47D breast): 1.25 µM | GI50 (U251 CNS): 0.863 µM | TGI (U251 CNS): 13 µM | GI50 (HCT-15 colon): 3.52 µM | TGI (HCT-15 colon): 19.8 µM | GI50 (NCI-H522 lung): 7.55 µM | TGI (NCI-H522 lung): 22.6 µM | GI50 (RPMI-8226 leukemia): 3.27 µM | TGI (RPMI-8226 leukemia): 32.9 µM | GI50 (NCI/ADR-RES ovarian): 5.59 µM | TGI (NCI/ADR-RES ovarian): 20.9 µM | GI50 (SR leukemia): 17.7 µM | TGI (SR leukemia): 51.5 µM | GI50 (K-562 leukemia): 1.87 µM | TGI (K-562 leukemia): > 45.5 µM | GI50 (DU-145 prostate): 7.89 µM | TGI (DU-145 prostate): 22.7 µM | GI50 (SK-MEL-5 melanoma): 2.58 µM | TGI (SK-MEL-5 melanoma): 13.2 µM | GI50 (UACC-257 melanoma): 0.145 µM | TGI (UACC-257 melanoma): 0.512 µM | GI50 (UACC-62 melanoma): 0.0929 µM | TGI (UACC-62 melanoma): 0.719 µM | GI50 (BT-549 breast): 5.02 µM | TGI (BT-549 breast): 19.4 µM | GI50 (HOP-92 NSCLC): 1.52 µM | TGI (HOP-92 NSCLC): 11.1 µM | GI50 (SK-OV-3 ovarian): 2.6 µM | TGI (SK-OV-3 ovarian): 12.9 µM | GI50 (SNB-19 CNS): 13.1 µM | TGI (SNB-19 CNS): 28.9 µM | GI50 (HT29 colon): 3.12 µM | TGI (HT29 colon): 13.5 µM | GI50 (LOX IMVI melanoma): 3.36 µM | TGI (LOX IMVI melanoma): 15.3 µM | GI50 (CAKI-1 renal): 0.563 µM | TGI (CAKI-1 renal): 7.45 µM | GI50 (SK-MEL-2 melanoma): 1.75 µM | TGI (SK-MEL-2 melanoma): 10.6 µM | GI50 (IGROV1 ovarian): 0.0867 µM | TGI (IGROV1 ovarian): 0.641 µM | GI50 (SW-620 colon): 0.824 µM | TGI (SW-620 colon): 16.4 µM | GI50 (SK-MEL-28 melanoma): 11.2 µM | TGI (SK-MEL-28 melanoma): 24.2 µM | GI50 (NCI-H460 lung): 0.348 µM | TGI (NCI-H460 lung): 10.9 µM | GI50 (HL-60(TB) leukemia): 3.17 µM | TGI (HL-60(TB) leukemia): 20.8 µM | GI50 (NCI-H23 lung): 3.23 µM | TGI (NCI-H23 lung): 22.8 µM | GI50 (COLO 205 colon): 2.2 µM | TGI (COLO 205 colon): 8.57 µM | GI50 (SF-268 CNS): 13.5 µM | TGI (SF-268 CNS): 29.6 µM | GI50 (SN12C renal): 4.35 µM | TGI (SN12C renal): 19.3 µM | GI50 (OVCAR-4 ovarian): 0.543 µM | TGI (OVCAR-4 ovarian): 11.3 µM | GI50 (UO-31 renal): 2.18 µM | TGI (UO-31 renal): 13.5 µM | GI50 (786-0 renal): 2.19 µM | TGI (786-0 renal): 13.3 µM | GI50 (CCRF-CEM leukemia): 9.96 µM | TGI (CCRF-CEM leukemia): 45.6 µM | GI50 (TK-10 renal): 0.0786 µM | TGI (TK-10 renal): 0.379 µM | GI50 (OVCAR-3 ovarian): 1.15 µM | TGI (OVCAR-3 ovarian): 5.75 µM | GI50 (MOLT-4 leukemia): 13.5 µM | TGI (MOLT-4 leukemia): 43.4 µM | GI50 (NCI-H226 lung): 0.063 µM | TGI (NCI-H226 lung): 0.198 µM | GI50 (KM12 colon): 11.8 µM | TGI (KM12 colon): 25.6 µM | GI50 (PC-3 prostate): 11.5 µM | TGI (PC-3 prostate): 27.7 µM | GI50 (OVCAR-5 ovarian): 0.258 µM | TGI (OVCAR-5 ovarian): 2.04 µM | GI50 (SF-295 CNS): 0.997 µM | TGI (SF-295 CNS): 12.1 µM
